# Source: paper PMC5218480 (PLoS ONE, 2017)
# System: MV-4-11 cells
# Assay: Gene expression microarray analysis (Affymetrix PrimeView) and GSEA
# Type: cell-based, human
# Set-up: RFU PODN (11730768_x_at) / Fold change /veh PODN (11730768_x_at) / RFU LINC00158 (11744669_a_at) / Fold change /veh LINC00158 (11744669_a_at) / RFU DUSP10 (11751237_a_at) / Fold change /veh DUSP10 (11751237_a_at) / RFU ID3 (11757404_x_at) / Fold change /veh ID3 (11757404_x_at) / RFU PLEKHG5 (11737974_s_at) / Fold change /veh PLEKHG5 (11737974_s_at) / RFU LRRC4B (11730491_at) / Fold change /veh LRRC4B (11730491_at) / RFU GIMAP4 (11747438_a_at) / Fold change /veh GIMAP4 (11747438_a_at) / RFU KRT8 (11758183_x_at) / Fold change /veh KRT8 (11758183_x_at) / RFU CNN1 (11734310_a_at) / Fold change /veh CNN1 (11734310_a_at) / RFU VPS37D (11726825_at) / Fold change /veh VPS37D (11726825_at) / RFU C10orf10 (11716522_x_at) / Fold change /veh C10orf10 (11716522_x_at) / RFU KIR2DL2 /// KIR2DL4 /// KIR2DL5A /// KIR2DL5B /// KIR2DS1 /// KIR2DS2 /// KIR2DS3 /// KIR2DS4 /// KIR3DL3 /// KIR3DL3 /// KIR3DS1 (11738374_at) / Fold change /veh KIR2DL2 /// KIR2DL4 /// KIR2DL5A /// KIR2DL5B /// KIR2DS1 /// KIR2DS2 /// KIR2DS3 /// KIR2DS4 /// KIR3DL3 /// KIR3DL3 /// KIR3DS1 (11738374_at) / RFU C1QL1 (11718748_at) / Fold change /veh C1QL1 (11718748_at) / RFU TMPRSS4 (11747572_a_at) / Fold change /veh TMPRSS4 (11747572_a_at) / RFU HAMP (11756126_x_at) / Fold change /veh HAMP (11756126_x_at) / RFU RNFT2 (11725882_a_at) / Fold change /veh RNFT2 (11725882_a_at) / RFU NR4A2 (11747474_a_at) / Fold change /veh NR4A2 (11747474_a_at) / RFU ABCC12 (11746883_a_at) / Fold change /veh ABCC12 (11746883_a_at) / RFU TMEM136 (11760407_x_at) / Fold change /veh TMEM136 (11760407_x_at) / RFU CLDN22 /// WWC2 (11732394_at) / Fold change /veh CLDN22 /// WWC2 (11732394_at) / RFU HLA-DPB1 (11760878_x_at) / Fold change /veh HLA-DPB1 (11760878_x_at) / RFU SPINT1 (11716480_a_at) / Fold change /veh SPINT1 (11716480_a_at) / RFU GAP43 (11754022_s_at) / Fold change /veh GAP43 (11754022_s_at) / RFU A4GNT (11735810_at) / Fold change /veh A4GNT (11735810_at) / RFU PRB3 (11715151_x_at) / Fold change /veh PRB3 (11715151_x_at) / RFU TUBB4B (11761932_at) / Fold change /veh TUBB4B (11761932_at) / RFU CAPN14 (11732068_a_at) / Fold change /veh CAPN14 (11732068_a_at) / RFU TMCC2 (11721928_a_at) / Fold change /veh TMCC2 (11721928_a_at) / RFU IRGQ (11745062_a_at) / Fold change /veh IRGQ (11745062_a_at) / RFU FAM174B (11720279_a_at) / Fold change /veh FAM174B (11720279_a_at) / RFU TMPRSS4 (11748680_a_at) / Fold change /veh TMPRSS4 (11748680_a_at) / RFU FAM212B (11763350_a_at) / Fold change /veh FAM212B (11763350_a_at) / RFU PLEKHG5 (11743358_a_at) / Fold change /veh PLEKHG5 (11743358_a_at) / RFU ZSCAN30 (11745921_a_at) / Fold change /veh ZSCAN30 (11745921_a_at) / RFU CMKLR1 (11741424_a_at) / Fold change /veh CMKLR1 (11741424_a_at) / RFU LOC101060620 /// MAPK8IP1 (11723275_at) / Fold change /veh LOC101060620 /// MAPK8IP1 (11723275_at) / RFU SPTSSB (11747773_x_at) / Fold change /veh SPTSSB (11747773_x_at) / RFU PRSS12 (11739890_at) / Fold change /veh PRSS12 (11739890_at) / RFU BIN1 (11741810_x_at) / Fold change /veh BIN1 (11741810_x_at) / RFU WNT11 (11732464_a_at) / Fold change /veh WNT11 (11732464_a_at) / RFU C10orf10 (11716521_a_at) / Fold change /veh C10orf10 (11716521_a_at) / RFU C5orf56 (11738089_at) / Fold change /veh C5orf56 (11738089_at) / RFU CYB561 (11721691_x_at) / Fold change /veh CYB561 (11721691_x_at) / RFU ANKRD19P (11752326_a_at) / Fold change /veh ANKRD19P (11752326_a_at) / RFU OR2T12 /// OR2T33 /// OR2T8 (11738714_s_at) / Fold change /veh OR2T12 /// OR2T33 /// OR2T8 (11738714_s_at) / RFU VCAN (11748164_a_at) / Fold change /veh VCAN (11748164_a_at) / RFU JSRP1 (11732532_at) / Fold change /veh JSRP1 (11732532_at) / RFU KRTAP10-11 (11738290_x_at) / Fold change /veh KRTAP10-11 (11738290_x_at) / RFU MYO3A (11730013_a_at) / Fold change /veh MYO3A (11730013_a_at) / RFU EBF3 (11725865_a_at) / Fold change /veh EBF3 (11725865_a_at) / RFU CAMK2N1 (11719241_x_at) / Fold change /veh CAMK2N1 (11719241_x_at) / RFU C5orf56 (11738088_a_at) / Fold change /veh C5orf56 (11738088_a_at) / RFU OLFML3 (11715873_a_at) / Fold change /veh OLFML3 (11715873_a_at) / RFU LOC100653217 /// NTM (11731650_a_at) / Fold change /veh LOC100653217 /// NTM (11731650_a_at) / RFU MAPK11 (11762145_a_at) / Fold change /veh MAPK11 (11762145_a_at) / RFU FIZ1 (11724087_x_at) / Fold change /veh FIZ1 (11724087_x_at) / RFU OASL (11726364_x_at) / Fold change /veh OASL (11726364_x_at) / RFU SOX15 (11748057_x_at) / Fold change /veh SOX15 (11748057_x_at) / RFU CD79A (11719716_a_at) / Fold change /veh CD79A (11719716_a_at) / RFU HIST1H1D (11736915_at) / Fold change /veh HIST1H1D (11736915_at) / RFU CASKIN2 (11723855_a_at) / Fold change /veh CASKIN2 (11723855_a_at) / RFU LOC730098 (11760151_x_at) / Fold change /veh LOC730098 (11760151_x_at) / RFU OR4N2 (11742367_at) / Fold change /veh OR4N2 (11742367_at) / RFU PRRT2 (11749266_a_at) / Fold change /veh PRRT2 (11749266_a_at) / RFU SNX32 (11753110_a_at) / Fold change /veh SNX32 (11753110_a_at) / RFU CDHR5 (11726645_a_at) / Fold change /veh CDHR5 (11726645_a_at) / RFU RCAN1 (11760418_a_at) / Fold change /veh RCAN1 (11760418_a_at) / RFU FAM167A (11723789_a_at) / Fold change /veh FAM167A (11723789_a_at) / RFU FAM26E (11764081_at) / Fold change /veh FAM26E (11764081_at) / RFU ISYNA1 (11749810_s_at) / Fold change /veh ISYNA1 (11749810_s_at) / RFU ACY1 (11761880_at) / Fold change /veh ACY1 (11761880_at) / RFU 11764098_at / Fold change /veh 11764098_at / RFU SAMD14 (11745864_x_at) / Fold change /veh SAMD14 (11745864_x_at) / RFU NPB (11741838_a_at) / Fold change /veh NPB (11741838_a_at) / RFU TMPRSS6 (11731388_a_at) / Fold change /veh TMPRSS6 (11731388_a_at) / RFU KRTAP10-2 (11738614_at) / Fold change /veh KRTAP10-2 (11738614_at) / RFU ARHGAP8 /// PRR5-ARHGAP8 (11727945_x_at) / Fold change /veh ARHGAP8 /// PRR5-ARHGAP8 (11727945_x_at) / RFU KRTAP5-7 /// NADSYN1 (11734609_at) / Fold change /veh KRTAP5-7 /// NADSYN1 (11734609_at) / RFU RASL12 (11751679_a_at) / Fold change /veh RASL12 (11751679_a_at) / RFU CDKN2B (11736163_a_at) / Fold change /veh CDKN2B (11736163_a_at) / RFU PRF1 (11729649_at) / Fold change /veh PRF1 (11729649_at) / RFU, ZNF638 /// ZNF638-IT1 / Fold change vs veh, ZNF638 /// ZNF638-IT1 / RFU, PANK3 / Fold change vs veh, PANK3 / RFU, SH3YL1 / Fold change vs veh, SH3YL1 / RFU, ZEB2 / Fold change vs veh, ZEB2 / RFU, NRIP1 / Fold change vs veh, NRIP1 / RFU, PTTG1IP / Fold change vs veh, PTTG1IP / RFU, CAPN2 / Fold change vs veh, CAPN2 / RFU, MED14 / Fold change vs veh, MED14 / RFU, SNORA58 / Fold change vs veh, SNORA58 / RFU, C1orf63 / Fold change vs veh, C1orf63 / RFU, LRRFIP1 / Fold change vs veh, LRRFIP1 / RFU, NDUFAF7 / Fold change vs veh, NDUFAF7 / RFU, SLC12A2 / Fold change vs veh, SLC12A2 / RFU, IBTK / Fold change vs veh, IBTK / RFU, ESF1 / Fold change vs veh, ESF1 / Fold change vs veh, TMEM50B / RFU, TAOK1 / Fold change vs veh, TAOK1 / RFU, ACBD3 / Fold change vs veh, ACBD3 / RFU, TMA16 / Fold change vs veh, TMA16 / RFU, RWDD3 / Fold change vs veh, RWDD3 / RFU, BCAT1 / Fold change vs veh, BCAT1 / RFU, EDEM3 / Fold change vs veh, EDEM3 / RFU, TMEM33 / Fold change vs veh, TMEM33 / RFU, WDR75 / Fold change vs veh, WDR75 / RFU, AHCTF1 / Fold change vs veh, AHCTF1 / RFU, TFRC / Fold change vs veh, TFRC / RFU, ZDHHC17 / Fold change vs veh, ZDHHC17 / RFU, NOM1 / Fold change vs veh, NOM1 / RFU, ARL8B / Fold change vs veh, ARL8B / RFU, ZBTB11 / Fold change vs veh, ZBTB11 / RFU, TAMM41 / Fold change vs veh, TAMM41 / RFU, KIAA1704 /// LOC100996395 / Fold change vs veh, KIAA1704 /// LOC100996395 / RFU, ING1 / Fold change vs veh, ING1 / RFU, TRMT61B / Fold change vs veh, TRMT61B / RFU, FUBP3 / Fold change vs veh, FUBP3 / RFU, TP53 / Fold change vs veh, TP53 / RFU, TNKS2 / Fold change vs veh, TNKS2 / RFU, ZFP14 / Fold change vs veh, ZFP14 / RFU, ACTR2 / Fold change vs veh, ACTR2 / RFU, PPP3R1 / Fold change vs veh, PPP3R1 / RFU, PIK3R1 / Fold change vs veh, PIK3R1 / RFU, HNRNPA1 / Fold change vs veh, HNRNPA1 / RFU, RNF170 / Fold change vs veh, RNF170 / RFU, ZNF28 / Fold change vs veh, ZNF28 / RFU, RNGTT / Fold change vs veh, RNGTT / RFU, OGT / Fold change vs veh, OGT / RFU, BRD1 / Fold change vs veh, BRD1 / RFU, MARS / Fold change vs veh, MARS / RFU, ZNF655 / Fold change vs veh, ZNF655 / RFU, FAHD1 / Fold change vs veh, FAHD1 / RFU, BDP1 / Fold change vs veh, BDP1 / RFU, LRRCC1 / Fold change vs veh, LRRCC1 / RFU, ARID1A / Fold change vs veh, ARID1A / RFU, ZNF146 / Fold change vs veh, ZNF146 / RFU, ZNF330 / Fold change vs veh, ZNF330 / RFU, GPN3 / Fold change vs veh, GPN3 / RFU, C9orf123 / Fold change vs veh, C9orf123 / RFU, N4BP2L2 / Fold change vs veh, N4BP2L2 / RFU, ARFIP1 / Fold change vs veh, ARFIP1 / RFU, FAM179B / Fold change vs veh, FAM179B / RFU, BCL10 / Fold change vs veh, BCL10 / RFU, UHRF1BP1L / Fold change vs veh, UHRF1BP1L / RFU, BET1 / Fold change vs veh, BET1 / RFU, CNOT2 / Fold change vs veh, CNOT2 / RFU, ZNF268 / Fold change vs veh, ZNF268 / Fold change vs veh, ZNF507 / RFU, DGCR2 / Fold change vs veh, DGCR2 / RFU, WDSUB1 / Fold change vs veh, WDSUB1 / Fold change vs veh, HSP90B1 /// MIR3652 / RFU, ADSS / Fold change vs veh, ADSS / RFU, GK / Fold change vs veh, GK / RFU, ZNF148 / Fold change vs veh, ZNF148 / RFU, TAF9 / Fold change vs veh, TAF9 / RFU, SLC1A5 / Fold change vs veh, SLC1A5 / RFU, SLMO2 / Fold change vs veh, SLMO2 / RFU, ABCC4 / Fold change vs veh, ABCC4 / RFU, LOC101060439 /// RAP1B / Fold change vs veh, LOC101060439 /// RAP1B / RFU, RFX7 / Fold change vs veh, RFX7 / RFU, GTPBP10 / Fold change vs veh, GTPBP10 / RFU, CNEP1R1 / Fold change vs veh, CNEP1R1 / RFU, BIVM-ERCC5 /// ERCC5 / Fold change vs veh, BIVM-ERCC5 /// ERCC5 / RFU, ILF3 / Fold change vs veh, ILF3 / RFU 11762660_at / Fold change /veh 11762660_at / RFU VCAN (11757783_s_at) / Fold change /veh VCAN (11757783_s_at) / RFU DDX43 (11728927_at) / Fold change /veh DDX43 (11728927_at) / RFU KRT8 (11758188_x_at) / Fold change /veh KRT8 (11758188_x_at) / RFU NKD1 (11759106_at) / Fold change /veh NKD1 (11759106_at) / RFU SRD5A1 (11742802_a_at) / Fold change /veh SRD5A1 (11742802_a_at) / RFU TPSAB1 /// TPSB2 (11721975_s_at) / Fold change /veh TPSAB1 /// TPSB2 (11721975_s_at) / RFU GSTM3 (11746129_a_at) / Fold change /veh GSTM3 (11746129_a_at) / RFU IL23R (11737362_x_at) / Fold change /veh IL23R (11737362_x_at) / RFU TMEM51 (11727254_a_at) / Fold change /veh TMEM51 (11727254_a_at) / RFU PIWIL2 (11732686_x_at) / Fold change /veh PIWIL2 (11732686_x_at) / RFU ORM1 (11744905_x_at) / Fold change /veh ORM1 (11744905_x_at) / RFU CCDC152 (11743942_at) / Fold change /veh CCDC152 (11743942_at) / RFU ECM1 (11717891_a_at) / Fold change /veh ECM1 (11717891_a_at) / RFU IL23R (11748794_a_at) / Fold change /veh IL23R (11748794_a_at) / RFU TNFAIP8L3 (11732012_x_at) / Fold change /veh TNFAIP8L3 (11732012_x_at) / RFU MBOAT4 (11741988_at) / Fold change /veh MBOAT4 (11741988_at) / RFU 11764193_at / Fold change /veh 11764193_at / RFU TMEM53 (11763286_at) / Fold change /veh TMEM53 (11763286_at) / RFU MAGEB2 (11727129_at) / Fold change /veh MAGEB2 (11727129_at) / RFU TMEM200A (11744735_a_at) / Fold change /veh TMEM200A (11744735_a_at) / RFU CCDC152 (11751479_a_at) / Fold change /veh CCDC152 (11751479_a_at) / RFU FAM211A (11726209_a_at) / Fold change /veh FAM211A (11726209_a_at) / RFU RGS16 (11746705_a_at) / Fold change /veh RGS16 (11746705_a_at) / RFU VCAN (11755009_s_at) / Fold change /veh VCAN (11755009_s_at) / RFU RHOB (11743442_s_at) / Fold change /veh RHOB (11743442_s_at) / RFU RGS16 (11720943_a_at) / Fold change /veh RGS16 (11720943_a_at) / RFU RGS16 (11720944_at) / Fold change /veh RGS16 (11720944_at) / RFU, VPS4B / Fold change vs veh, VPS4B / RFU, CREB1 / Fold change vs veh, CREB1 / RFU, DNAJC13 / Fold change vs veh, DNAJC13 / RFU, GNAQ / Fold change vs veh, GNAQ / RFU, CDK5R1 / Fold change vs veh, CDK5R1 / RFU, ZRANB3 / Fold change vs veh, ZRANB3 / RFU, CUL4A / Fold change vs veh, CUL4A / RFU, CCNY / Fold change vs veh, CCNY / RFU, UFL1 / Fold change vs veh, UFL1 / RFU, COG3 / Fold change vs veh, COG3 / RFU, DIAPH2 / Fold change vs veh, DIAPH2 / RFU, SKA2 / Fold change vs veh, SKA2 / RFU, AFF3 / Fold change vs veh, AFF3 / RFU, LMF1 / Fold change vs veh, LMF1 / RFU, IPO11 / Fold change vs veh, IPO11 / RFU, DFFB / Fold change vs veh, DFFB / RFU, FOXP1 / Fold change vs veh, FOXP1 / RFU, CARD8 / Fold change vs veh, CARD8 / RFU, STRN3 / Fold change vs veh, STRN3 / RFU, ADK / Fold change vs veh, ADK / RFU, RASSF2 / Fold change vs veh, RASSF2 / RFU, WIPF1 / Fold change vs veh, WIPF1 / RFU, LARP1B / Fold change vs veh, LARP1B / RFU, RASA1 / Fold change vs veh, RASA1 / RFU, RB1 / Fold change vs veh, RB1 / RFU, PPFIA1 / Fold change vs veh, PPFIA1 / RFU, MAT2A / Fold change vs veh, MAT2A / RFU, CCT5 / Fold change vs veh, CCT5 / RFU, WDR92 / Fold change vs veh, WDR92 / RFU, CUX1 / Fold change vs veh, CUX1 / RFU, TTC7A / Fold change vs veh, TTC7A / RFU, TMEM135 / Fold change vs veh, TMEM135 / RFU, DEPTOR / Fold change vs veh, DEPTOR / RFU, CPM / Fold change vs veh, CPM / RFU, DNAJB6 / Fold change vs veh, DNAJB6 / RFU, CACNA2D3 / Fold change vs veh, CACNA2D3 / RFU, DTX4 / Fold change vs veh, DTX4 / RFU, TFCP2 / Fold change vs veh, TFCP2 / RFU, GMCL1 /// GMCL1P1 / Fold change vs veh, GMCL1 /// GMCL1P1 / RFU, AEBP2 / Fold change vs veh, AEBP2 / RFU, SNHG1 /// SNORD22 /// SNORD25 /// SNORD26 /// SNORD27 /// SNORD28 /// SNORD29 /// SNORD31 / Fold change vs veh, SNHG1 /// SNORD22 /// SNORD25 /// SNORD26 /// SNORD27 /// SNORD28 /// SNORD29 /// SNORD31 / Fold change (Aza/veh), C12orf56 (ProbeSet 11735607_a_at) / Fold change (ACY-1035/veh), C12orf56 (ProbeSet 11735607_a_at) / Fold change (Aza/veh), FGFR1OP (ProbeSet 11751329_s_at) / Fold change (ACY-1035/veh), FGFR1OP (ProbeSet 11751329_s_at) / Fold change (Aza/veh), VPS36 (ProbeSet 11739960_a_at) / Fold change (ACY-1035/veh), VPS36 (ProbeSet 11739960_a_at) / RFU SYPL1 (11715823_x_at) / Fold change /veh SYPL1 (11715823_x_at) / RFU IGFBP7 (11715501_s_at) / Fold change /veh IGFBP7 (11715501_s_at) / RFU REEP3 (11722064_at) / Fold change /veh REEP3 (11722064_at) / RFU IGLL1 (11728026_x_at) / Fold change /veh IGLL1 (11728026_x_at): dose or concentration left out as unconfirmed
# Conditions: MV-4-11 cells, 48 hours
smiles,measurement,value
Nc1ncn([C@@H]2O[C@H](CO)[C@@H](O)[C@H]2O)c(=O)n1 [azacitidine],RFU ACY1 (11761880_at),18.62 RFU
